# Paper PMC8188608 (Chemical Science, 2021)
# Molecular target: ΔmtDXPS (Mycobacterium tuberculosis, UniProt P9WNS3, D231G/I229G/K230G/L233G/S232G/S234G)
# Assay type: binding
structure (smiles),measurement,value
O=C(CCCOc1ccc(Cl)cc1Cl)NCCc1ccc(O)cc1F [Compound 39],fold decrease in binding affinity for ΔmtDXPS,~1.5 fold
